From patent EP2949324A1, “Prevention and/or treatment of ischemia/reperfusion injury” (Consorci Institut Catala de Ciencies Cardiovasculars, priority 2014, dated 2015)

Experiments:
[1] = test system: TβRII/Smad2/3 signaling pathway; assay: Reparative fibrosis of the forming scar (TβRII/Smad2/3, myofibroblasts, collagen); format: in vivo, swine
Method: (§1) Transcriptomic analysis: It was analyzed by real-time PCR (Applied Biosystems) mRNA levels for: 1) apoptosis-related markers [extrinsic-(Fas Receptor/CD95 and caspase-8), intrinsic-(Bax, Bcl2, and P53) pathways and caspase-3]; 2) intracellular calcium handling receptors [sarcoendoplasmic reticulum Ca^2+ATPase 2 (SERCA2) and the ryanodine receptor (RyR2)]; and 3) fibrous tissue formation (collagen, Smad2 and Smad3). The threshold cycle values were determined and normalized to the housekeeping gene 18S rRNA.
(§2) Western Blot analysis: Protein levels of: 1) apoptosis markers (truncated-caspase-3); 2) cardioprotective kinases [PKC-ε and PKC-ε phosphorylated at Ser^729 (Santa Cruz) and Akt/PKB (Santa Cruz) and Akt phosphorylated at Ser^473 (Cell signaling)]; 3) total eNOS and eNOS phosphorilated at Ser^1177 (Cell Signaling); and 4) fibrosis [TGFP type II receptor (TPRII; Abcam) and phosphorylated-Smad2/3 (Ser^423/425; Santa Cruz)] were assessed.
(§3) To that end, serially cut 5 µm sections from OCT-embedded samples were stained for lipids (oil red-O, ORO) and interstitial collagen (Sirius Red). Images were captured with a Nikon eclipse 80i microscope and digitalized by a Retiga-1300i. Staining was calculated by a single blinded observer from an average of 5-fields/sample as content (%)=[positive stained area/(total tissue area- vascular luminal areas)]x100 using ImageJ®.
In addition, myofibroblasts detection in the scar tissue was performed by double staining with mouse monoclonal vimentin (Dako) and rabbit polyclonal alpha-SMA 1:50 (Abeam). Alexa fluor 488 donkey anti-mouse and alexa fluor 546 goat anti-rabbit were used as secondary antibodies, respectively and Hoechst for nuclear staining. Images were captured by confocal microscopy (20x).

[2] = test system: pig model of closed-chest coronary balloon occlusion/reperfusion; assay: Transthoracic echocardiography (LVEF, SF); format: in vivo, swine
Method: Transthoracic echocardiography assessment was performed in all animals before inducing ischemia (baseline), after 75 min of ischemia (prior β-OH-S infusion), 2.5 h post-reperfusion and 3 weeks post-MI using an echocardiographyc system Phillips iE33 equipped with a S5-1 Sector Array transducer. Left ventricle ejection fraction (LVEF) and shortening fraction (SF) were measured in the short-axis M-mode right parasternal projection in a plane below the mitral valves and perpendicular to the LV (left ventricle).

[3] = test system: Akt/eNOS signaling pathway; assay: Akt/eNOS signaling (Western blot) in myocardium and coronary arteries; format: in vivo, swine
Method: as §2
In addition, 3 weeks post-MI, the coronary arteries of all animals were isolated, cleaned of surrounding tissue and snap frozen for further analysis of coronary phosphorylated-eNOS protein expression.

LDL = assay: Resistance of LDL against copper induced in vitro oxidation and TBARS; format: in vivo, swine; conditions: 3 week oral treatment; p<0.05
Method: (§4) Blood samples were collected at 2.5 h post-reperfusion and 3 weeks post-MI to evaluate lipoprotein resistance to oxidation. The inventors firstly assessed HDL-antioxidant activity by a method based on the ability of HDL to reverse oxidation of LDL. Results were expressed as the percentage of total oxidized LDL considering that control oxLDL is 100%. In addition, resistance of LDL against copper induced in vitro oxidation was also determined in EDTA-blood samples as previously described. The inventors also determined the lipid peroxide content of oxidized-LDL by assessing thiobarbituric-acid-reactive substances (TBARS).

PKCε = PKCε expression/activation in the forming scar (Western blot); format: in vivo, swine; conditions: scar tissue, compared to placebo-control animals
Method: as §2

RhoA = RhoA in total and cytosolic-membrane fractions of cardiac tissue (immunoblotting); format: in vivo, swine; conditions: for total amount of RhoA: myocardium, […] post-reperfusion and 3 weeks post-MI
Method: RhoA (Santa Cruz) was determined in total and cytosolic-membrane fractions of jeopardized cardiac tissue of all animals as previously described by Vilahur G 2009 (ad supra).

[4] = test system: pig model of closed-chest coronary balloon occlusion/reperfusion; assay: Myocardial lipotoxicity: oil red-O staining and lipid characterization (TLC) of scar and NIM; format: in vivo, swine; conditions: 3 weeks post-MI
Method: as §3

[5] = cited from earlier work; for infarct size: given pre-ischemia
[6] = test system: canine cardiac ischemia model; conditions: infused during reperfusion; cited from earlier work
[7] = test system: apoptosis-related markers; assay: Apoptosis-related markers in ischemic myocardium (real-time PCR, Western blot, TUNEL); format: in vivo, swine
Method: (§5) Tissue samples obtained from the IM (2.5 h post-reperfusion)/scar (3 weeks post-MI) and NIM of all animals were pulverized and homogenized in Tripure® or lysis buffer for RNA and protein isolation, respectively.
as §1, §2
Isolated mitochondrial extracts were incubated against Bcl-2 phosphorylated at Ser^87.

[8] = test system: pig model of closed-chest coronary balloon occlusion/reperfusion; assay: Neutrophil detection in ischemic myocardium (anti-neutrophil elastase staining); format: in vivo, swine; conditions: […] post-reperfusion, p<0.05
Method: (§6) Paraffin-embedded LAD and ischemic myocardial tissue of animals sacrificed 2.5 h post-reperfusion were cut into 5-µm-thick for 8-hydroxyguanosine staining (Abcam ab48508), a measurement indicative of oxidative stress-induced DNA-damage. In addition, optimal cutting temperature (OCT)-embedded ischemic myocardial tissue of animals sacrificed 2.5 h post-reperfusion was stained for neutrophils detection (anti-neutrophil elastase; Abcam). Staining was calculated by a single blinded observer from an average of 5-fields/animal as % of stained area. Images were captured by Nikon Eclipse 80i microscope and digitized by Retiga 1300i Fast camera.

RyR2 = assay: Real-time PCR of calcium handling receptor mRNA; format: in vivo, swine
Method: as §5, §1

SERCA2 = assay: Real-time PCR of calcium handling receptor mRNA; format: in vivo, swine
Method: as §5, §1

[9] = test system: pig model of closed-chest coronary balloon occlusion/reperfusion; assay: Reperfusion-related arrhythmias and hemodynamic monitoring; format: in vivo, swine
Method: This hyperlipidemic diet contains 24.82% proteins, 64.20% carbohydrates, 10.98% fats and 16,834.7 kJ. […] After this 10 day diet period animals underwent a closed-chest 90 min mid-left anterior descending (LAD) coronary balloon occlusion. […] At minute 90, the balloon was deflated to achieve coronary artery reperfusion. […] The incidence of reperfusion-related arrhythmias during the first 2.5 h upon balloon deflation was documented in all animals. Animals had continuous ECG and hemodynamic monitoring throughout all procedures.

[10] = test system: mitochondria isolated from the ischemic myocardium; assay: Mitochondrial membrane potential by flow cytometry (JC-1); format: in vivo, swine; conditions: […] of reperfusion, p<0.05
Method: Mitochondria were isolated from the ischemic myocardium of pigs subjected to 2.5 h of reperfusion as previously reported (Boehm et al. 2001 Am J Physiol Heart Circ Physiol 280: H977-983). Mitochondrial membrane potential (Δψm) was measured by flow cytometry using the ratiometric dye 5,5',6,6'-tetrachloro-1,1',3,3'-tetraethylbenzimidazol carbocyanine iodide (JC-1; Molecular Probes). Values were expressed as red fluorescence activity. Isolated mitochondria treated with valinomycin (Sigma), which decreases Δψm, were used as control.

oxLDL = assay: HDL-antioxidant activity (ability of HDL to reverse oxidation of LDL); format: in vivo, swine; conditions: HDL isolated […] post-reperfusion; p<0.05
Method: as §4

[11] = test system: pig model of closed-chest coronary balloon occlusion/reperfusion; assay: Morphometric determination of infarct size (Evan's Blue / TTC); format: in vivo, swine; conditions: single loading dose 0.3 mg/kg i.v. prior reperfusion; p<0.05
Method: This hyperlipidemic diet contains 24.82% proteins, 64.20% carbohydrates, 10.98% fats and 16,834.7 kJ. […] After this 10 day diet period animals underwent a closed-chest 90 min mid-left anterior descending (LAD) coronary balloon occlusion. […] At minute 90, the balloon was deflated to achieve coronary artery reperfusion. […] The incidence of reperfusion-related arrhythmias during the first 2.5 h upon balloon deflation was documented in all animals. Animals had continuous ECG and hemodynamic monitoring throughout all procedures. 2.5 h post-reperfusion Evan's Blue dye was injected in anesthetized animals through the left atrium to outline the area at risk (AAR) after which the hearts of the animals were arrested with potassium chloride and rapidly excised. Hearts were sectioned into 6 transverse slices parallel to the atrioventricular ring. Consecutive slices were alternatively collected for infarct size analysis (TTC; triphenyltetrazolium chloride staining) and molecular studies of the ischemic myocardium (IM) and non-ischemic myocardium (NIM).

[12] = test system: pig model of closed-chest coronary balloon occlusion/reperfusion; assay: Vascular/cardiac DNA-oxidative damage (8-hydroxyguanosine staining); format: in vivo, swine; conditions: […] post-reperfusion
Method: as §6

endothelin receptors = conditions: cited from earlier work; for cardiac function and myocardial relaxation: at 1 h; for difference compared to placebo-treated animals: at 24 h
[13] = test system: canine hepatic ischemia/reperfusion model; conditions: given prior to reperfusion; cited from earlier work
[14] = ischemic myocardium, […] post-reperfusion

CCC(C)(C)C(=O)O[C@H]1C[C@@H](C)C=C2C=C[C@H](C)[C@H](CC[C@@H]3C[C@@H](O)CC(=O)O3)[C@H]21 [Simvastatin, (1S,3R,7S,8S,8aR)-8-{2-[(2R,4R)-4-hydroxy-6-oxotetrahydro-2H-pyran-2-yl]ethyl}-3,7-dimethyl-1,2,3,7,8,8a hexahydronaphthalen-1-yl 2,2-dimethylbutanoate]
Smad3 mRNA levels ([1]; different cardiac regions, 3 weeks post-MI): no changes | collagen fibrils deposition ([1]; healing scar, compared to control animals and NIM): higher | α-SMA/vimentin positive myofibroblasts ([1]; healing scar, data not shown): higher detection | Smad2/3 (downstream effector of TβRII) ([1]; scar area, 3 weeks post-MI): activation | TβRII protein expression ([1]; scar area, 3 weeks post-MI): marked and significant increase | Smad2 gene expression ([1]; scar tissue, 3 weeks post-MI): significantly upregulated | LVEF and SF improvement ([2]; up to 3 weeks post-MI, oral simvastatin): persisted | P-eNOS ([3]; coronary arteries at 3-weeks post-MI): enhanced | P-Akt/P-eNOS pathway activation ([3]; evolving scar up to 3 weeks post-AMI): persisted | decrease in TBARS levels as compared to the experimental day (LDL): 32% | prolongation of the lag time as compared to control/placebo animals (LDL): 4 times | PKCε expression and activation (PKCε): enhanced both the expression and activation | total amount of RhoA (RhoA): unchanged | decrease of RhoA membrane translocation (RhoA; scar, after the 3-week oral treatment, p<0.001 vs control): persisted | free-cholesterol content ([4]; different cardiac zones): No differences | less cholesteryl-ester accumulation as compared to placebo-controls ([4]; forming scar): 50%

O=C(NCCO[N+](=O)[O-])c1cccnc1 [nicorandil]
infarct size [5]: reduced infarct size in a dose-dependent manner

CCNC(=O)[C@H]1O[C@@H](n2cnc3c(N)nc(NCCc4ccc(CCC(=O)O)cc4)nc32)[C@H](O)[C@@H]1O [CGS-21680]
Bax [6]: downregulated | Bcl-2 levels [6]: upregulated | neutrophil accumulation in the perinecrotic myocardium [6]: reduced

CS(=O)(=O)O.Cc1cccc2c1cc(C(=O)N=C(N)N)n2C [SM-20550]
effect on infarct size ([5]; given post-ischemia): beneficial | infarct size [5]: reduced infarct size in a dose-dependent manner

CCC(C)(C)C(=O)OC1CC(C)C=C2C=CC(C)C(CCC(O)CC(O)CC(=O)O)C21 (stereo not drawn) [β-OH-S, β-hydroxy acid derivative of simvastatin]
mitochondrial Bcl-2 activation [7, 14]: diminished | truncated caspase-3 expression [7, 14]: reduced | apoptotic cell counts (TUNEL staining) ([7]; ischemic myocardium, compared to vehicle/control, data not shown): low apoptotic cell counts | upregulation of genes of death receptor- and mitochondrial-related apoptotic pathways ([7]; jeopardized myocardium, […] post-reperfusion): prevented the upregulation | LVEF improvement ([2]; […] after reperfusion): 9.4% | SF improvement ([2]; […] after reperfusion): 6.0% | P-Akt/P-eNOS pathway ([3]; ischemic myocardium, acute administration): activating | attenuation of neutrophils infiltration as compared to vehicle/control [8]: ~70% | RyR2 mRNA (RyR2; NIM): 0.2±0.07 RyR2/18S rRNA | RyR2 mRNA (RyR2; ischemic myocardium): 0.14±0.03 RyR2/18S rRNA | SERCA2 mRNA (SERCA2; NIM): 1.5±0.3 SERCA/18S rRNA | SERCA2 mRNA (SERCA2; ischemic myocardium): 1.9±0.5 SERCA/18S rRNA | incidence of reperfusion-related ventricular arrhythmias ([9]; first […] upon balloon deflation, 3 out of 12): 25 % animals | hemodynamic parameters (heart rate and mean blood pressure) ([9]; throughout the study): not affected | Δψm relative to vehicle/control [10]: 2 times | RhoA membrane translocation (activation), membrane-to-cytosol ratio (RhoA; intravenous infusion, ischemic myocardium, […] post-reperfusion, p<0.001 vs control): markedly decreased | total amount of RhoA (RhoA): unchanged | higher HDL antioxidant activity against LDL oxidation relative to controls (oxLDL): 25% | salvage of the LV-at-risk as compared to reperfusion alone [11]: 40% | reperfusion-related oxidative DNA damage ([12]; coronary artery): absence of DNA oxidative damage | reperfusion-related oxidative DNA damage ([12]; ischemic myocardial tissue): absence of DNA oxidative damage

BQ-123
cardiac function and myocardial relaxation (endothelin receptors): significantly better | difference compared to placebo-treated animals (endothelin receptors): no longer evident

Nc1ncnc2c1ncn2[C@@H]1O[C@H](CO)[C@@H](O)[C@H]1O [adenosine, Adenosine]
aspartate aminotransferase (AST) and alanine transaminase (ALT) [13]: attenuated the rise | hepatic glutathione stores [13]: restored | neutrophil accumulation and superoxide radical production [13]: inhibition

BQ-788
cardiac function and myocardial relaxation (endothelin receptors): significantly better | difference compared to placebo-treated animals (endothelin receptors): no longer evident
